Laboratory results published in patent publication US5045566A, “Novel imidate insecticides” (ICI Americas Inc., priority 1989, dated 1991).

Assays:
Format in all cases: in vivo
[1] = system: Housefly [Musca domestica]; test: Housefly contact mortality in dishes (HF), 48 hours; conditions: μg of test compound per 25 female flies
How it was run: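 Acetone solutions (with 0.01% peanut oil) dried onto dish bottoms, then 25 female flies, 1-2 days old, caged over the residue with sugar water. Mortality scored at 48 hours; LC50 from dosage-mortality curves, in μg per 25 female flies, top level 100 μg.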

[2] = system: Black Bean Aphid [Aphis fabae (Scop.)]; test: Black bean aphid spray test on nasturtium (BBA), 48 hours; conditions: percent of test compound in sprayed solution
How it was run: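 LC50, given as percent test compound in the sprayed liquid, was calculated from dosage-mortality curves using concentrations from 0.05% downward. Sprays in 50:50 acetone-water went to runoff on ~5 cm nasturtiums carrying 25-50 aphids of mixed ages, one day after infestation. Deaths were counted 48 h later under greenhouse conditions.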

[3] = system: Tobacco Budworm [Heliothis virescens (Fabricius)] larvae; test: Tobacco budworm larvae, contact (TBW-C), 5 days; conditions: percent in solution, second-instar larvae
How it was run: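 Cotton cotyledons dipped 2–3 s in compound in 50-50 acetone-water, dried, then infested with 5 second-instar larvae and held 5 days at high humidity. Mortality scored; LC50 from dosage-mortality curves, expressed as percent compound in solution, concentrations from 0.1% downward.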

[4] = system: Tobacco Budworm [Heliothis virescens (Fabricius)] eggs; test: Tobacco budworm eggs (TBW-E); conditions: percent in solution; 2-day old eggs
How it was run: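 Step 1: dip 2-day old egg patches in acetone test solutions (top concentration 0.1%). Step 2: hold in dishes with rearing medium at 78° F. Step 3: record mortality after control hatch and feeding.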

[5] = system: Beet Armyworm (Spodoptera exigua); test: Beet armyworm leaf dip (BAW), 5 days; conditions: percent in solution; second-instar larvae; five days
How it was run: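 Sugar beet leaves dipped 2–3 s in compound diluted in 50:50 acetone-water, dried, then infested with five second-instar larvae in humid petri dishes. Mortality scored at 5 days; concentrations from 0.1% downward. LC50 from dosage-mortality curves, expressed as percent compound in solution.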

[6] = system: Cabbage Looper [Trichoplusia ni (Hubner)]; test: Cabbage looper leaf dip (CL), 3-5 days; conditions: percent in solution, second-instar larvae
How it was run: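 Squash cotyledons dipped in test solution (acetone-water 50-50, ≤0.1%), dried, offered to 5 second-instar larvae; mortality after 3-5 days gives LC50.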

[7] = system: Aster Leafhopper [Macrosteles fascifrens (Stal)]; test: Aster leafhopper on dipped oat seedlings (LH), 48 hours; conditions: percent in solution, adults/nymphs
How it was run: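 Three ~10 cm oat seedlings per cup were dipped 2-3 seconds in 50-50 acetone-water compound solutions, dried, and caged with ten adult/nymph leafhoppers. Mortality was counted after 48 hours at concentrations from 0.05% downward. LC50, as percent compound in solution, came from dosage-mortality curves.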

[8] = system: Maize weevil [Sitophilus zeamais (Motschulsky)]; test: Maize weevil on dipped corn seeds (MW), 48 hours; conditions: percent in solution, adult weevils
How it was run: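 LC50, given as percent of compound in dipping solution, comes from dosage-mortality curves over concentrations descending from 0.01%. Four corn seeds soaked 2-3 s in 50:50 acetone:water solution were dried and held with 10 adult weevils, about 25° C, mortality read after 48 h.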

[9] = system: Rice water weevil [Lissorhoptrus oryzophilus (Kuschel)]; test: Rice water weevil topical (RWW), 48 hours; conditions: μg of test compound per weevil, female adults
How it was run: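 Female adult weevils (ten per dose) received 1 µl acetone droplets on the ventral abdomen and were held at about 25 °C with wet cotton and rice foliage. Mortality read at 48 h; LC50 from dose-mortality curves, given as µg compound per weevil, top dose 2.5 µg per weevil.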

[10] = system: two-spotted mite [Tetranychus urticae (Koch)]; test: Two-spotted mite activity; conditions: initial testing level 0.05% in solution
Procedure: The compounds in Tables 1 and 2 were also tested for activity against the two-spotted mite [Tetranychus urticae (Koch)] and Western spotted cucumber beetle larvae [Diabrotica undecimpunctata undecimpunctata (Mannerheim)]. Initial testing levels were 0.05% (in solution) against the mite, and 25 ppm (in soil) against the beetle.

Compound	LC50 HF [1] [µg]	LC50 BBA [2] [%]	LC50 TBW C (contact) [3] [%]	LC50 TBW E (eggs) [4] [%]	LC50 BAW [5] [%]	LC50 CL [6] [%]	LC50 LH [7] [%]	LC50 MW [8] [%]	LC50 RWW [9] [µg]	activity in tests against twospotted mite [10]
CC(C)C(=Nc1ccc(F)c(Cl)c1)OCc1cccc(Oc2ccc(F)cc2)c1 [Compound 89]	5	0.003	0.0005	0.04	0.009	0.00003	0.001	0.005	> 2.5	–
CC(C)C(=Nc1ccc2c(c1)OCO2)OCc1cccc(Oc2ccccc2)c1 [Compound 180]	2	0.0003	0.003	0.03	0.005	0.0004	0.0015	0.008	> 2.5	–
CC(C)C(=Nc1ccc(F)c(Cl)c1)OCc1ccc(F)c(Oc2ccc(F)cc2)c1 [Compound 216]	2	0.00025	0.00018	0.005	0.0007	0.000007	0.00025	0.0017	0.067	–
CC(C)C(=Nc1ccc(F)c(Cl)c1)OCc1cccc(Oc2ccc(Cl)cc2)c1 [Compound 239]	14	0.001	0.0005	0.025	0.005	0.00015	0.002	0.006	> 2.5	–
CC(C)C(=Nc1ccc(F)c(Cl)c1)OCc1ccc(F)c(Oc2ccc(Cl)cc2)c1 [Compound 267]	8.4	0.0003	0.0003	0.015	0.0012	0.00008	0.002	0.0027	0.11	–
CC(C)C(=Nc1ccc(Cl)cc1)OCc1cccc(Oc2ccc(Cl)cc2)c1 [Compound 269]	25	> 0.05	0.001	0.04	0.0024	0.0003	0.003	> 0.01	> 2.5	–
CC(C)C(=Nc1ccc(F)c(Br)c1)OCc1ccc(F)c(Oc2ccc(F)cc2)c1 [Compound 273]	7	0.0003	0.00025	0.015	0.0017	0.000018	0.0003	0.004	> 2.5	–
CC(C)C(=Nc1ccc(F)c(C(F)(F)F)c1)OCc1ccc(F)c(Oc2ccc(F)cc2)c1 [Compound 277]	4	0.0008	0.0005	0.013	0.005	0.00001	0.0003	> 0.01	0.065	–
CC(C)C(=Nc1ccc(F)c(F)c1)OCc1ccc(F)c(Oc2ccc(F)cc2)c1 [Compound 278]	3	0.0005	0.00026	0.008	0.0012	0.00002	0.0003	0.0063	0.085	–
CC(C)C(=Nc1ccc(OC(F)(F)F)cc1)OCc1ccc(F)c(Oc2ccc(F)cc2)c1 [Compound 286]	34	0.0003	0.00017	0.005	0.0004	0.000024	0.0006	0.0039	0.09	–
CC(C)C(=Nc1ccc(OC(F)(F)F)cc1)OCc1ccc(F)c(Oc2ccc(Cl)cc2)c1 [Compound 323]	> 100	> 0.05	0.00065	0.045	0.0025	0.0006	0.05	0.0075	0.16	–
CC(C)C(=Nc1ccc(F)c(Cl)c1F)OCc1cccc(Oc2ccc(F)cc2)c1 [Compound 352]	4.6	0.0003	0.0004	> 0.1	> 0.1	0.000065	0.0004	0.0075	> 2.5	–
CC(C)C(=Nc1ccc(OC(F)(F)C(F)Cl)cc1)OCc1cccc(Oc2ccccc2)c1 (stereo not drawn) [Compound 418]	> 100	> 0.05	–	> 0.1	–	> 0.1	–	> 0.01	–	demonstrated activity
CC(C)C(=Nc1ccc(OC(F)(F)C(F)Cl)cc1)OCc1ccc(F)c(Oc2ccccc2)c1 (stereo not drawn) [Compound 419]	> 100	> 0.05	–	> 0.1	–	> 0.1	–	> 0.01	–	demonstrated activity
